Test results published in US20030198617A1, “Pharmaceutical tryptophan containing dipeptide compositions and methods of use thereof” (priority 1993, published 2003).
Like-named read-outs stand apart in the source and are kept apart here. Marks after values point to notes of the source that are not given here.

Key:
[1] = system: Staphylococci; assay: Antibiotic-sensitivity of staphylococci from skin lesions (MIC, series cultivation); type: cell-based
Text: Staphylococci extracted from dermal lesions were initially sensitive to 10 of the 15 antibiotics being assayed (Table 25).

[2] = system: methicillin-resistant Staphylococcal aureus; conditions: 5 test animals
[3] = system: Mycobacterium tuberculosis; conditions: in vivo
[4] = staphylococci from patients After IM862
[5] = staphylococci from patients Before IM862

Compound | MIC g/ml [1, 4] | MIC g/ml [1, 5] | other results
CC1(C)S[C@@H]2[C@H](NC(=O)[C@H](N)c3ccccc3)C(=O)N2[C@H]1C(=O)O [Ampicillin, reference compound] | 2.64 ± 0.60^yy g/ml | 8.10 ± 0.49^x g/ml | Survivors ([2]; 100 mg/kg Ampicillin, pre-treated with normal saline i.p.): no survivors; Percent ip Survivors ([2]; Group 1: IM862 control (0) pretreatment, ampicillin 100 mg/kg 1 hr after inoculation, 72 hours): 0%; Survivors ([2]; Group 1: IM862 control (0) pretreatment, ampicillin 100 mg/kg 1 hr after inoculation, survivors at 72 hours): 0
Cc1nnc(SCC2=C(C(=O)O)N3C(=O)[C@@H](NC(=O)Cn4cnnn4)[C@H]3SC2)s1 [Cefamezin] | 1.33 ± 0.53^yy g/ml |  | 
NC[C@H]1O[C@H](O[C@H]2[C@H](O)[C@@H](O[C@H]3O[C@H](CO)[C@@H](O)[C@H](N)[C@H]3O)[C@H](N)C[C@@H]2N)[C@H](O)[C@@H](O)[C@@H]1O [Kanamycin] | 2.09 ± 0.54^yy g/ml | 6.32 ± 0.58^x g/ml | 
CC(=O)OCC1=C(C(=O)O)N2C(=O)[C@@H](NC(=O)Cc3cccs3)[C@H]2SC1 [Keflin] | 1. ± 0.69^y g/ml |  | 
Cc1nnc(SCC2=C(C(=O)O)N3C(=O)[C@@H](NC(=O)Cn4cnnn4)[C@H]3SC2)s1 [Kefzol] | 1.86 ± 0.93^y g/ml |  | 
O=C(N[C@H](CO)[C@H](O)c1ccc([N+](=O)[O-])cc1)C(Cl)Cl [Levomicetin] | 4.58 ± 0.67^yy g/ml | 9.17 ± 0.36^x g/ml | 
Cc1onc(-c2ccccc2)c1C(=O)N[C@@H]1C(=O)N2[C@@H]1SC(C)(C)[C@@H]2C(=O)O [Oxycillin] | 1.56 ± 0.45^yy g/ml | 5.11 ± 0.63^x g/ml | 
[H]/N=C(/N)N[C@H]1[C@H](O)[C@@H](O)[C@H](O[C@@H]2O[C@@H](C)[C@](O)(C=O)[C@H]2O[C@@H]2O[C@@H](CO)[C@H](O)[C@@H](O)[C@@H]2NC)[C@@H](N/C(N)=N\[H])[C@@H]1O [Streptomycin] | 3.39 ± 0.66^yy g/ml | 6.71 ± 0.59^x g/ml | 
c1ccc([C@H]2CN3CCSC3=N2)cc1 [decaris, reference compound] |  |  | disintegration cavities closed, number of patients [3]: 10 patients; improvement, number of patients [3]: 18; no improvement, number of patients [3]: 3 patients; significant improvement, number of patients [3]: only one case
Gentamycin | 1.32 ± 0.49^yy g/ml | 5.47 ± 0.92^x g/ml | 
Penicillin | 2.52 ± 0.70^yy g/ml | 9.45 ± 0.28^x g/ml | 
